In patent US20260158194A1, “DRUG COATED BALLOON” (ARTERIUS LIMITED, priority 2021, published 2026):

Tests used:
[1] = Simulated tracking and deployment (ASTM F3320-18) into hydrogel mock-vessel (Examples 14-17); format: physicochemical; conditions: single drug
Procedure: In this example, a hydrogel was used to mimic the arterial tissue wall to assess the drug release profile and simulate the tracking and deployment process.
Based on the process described in ASTM F3320-18, folded balloons were pushed through a 37° C. heated anatomical model filled with PBS for 30 seconds. At the end of the track, balloons were then inflated to nominal pressure inside the hydrogel for 1 minute. The PBS inside the track was collected and replaced, and the balloon withdrawn back through the track. The PBS in the track was collected, and the coated balloon was inflated to nominal pressure for a final drug release in methanol for 5 minutes. The drug concentration in the two PBS samples and methanol sample was measured by UV-VIS. This was used to calculate the drug dose delivered to the hydrogel site.
In this example, the drug release profiles of balloons dip coated with methanol solutions containing 20% excipient Pluronic F108 and 8% of either dipyridamole or sirolimus were assessed. After coating, the balloons were dried and folded.
In this example, balloons were spray coated with a methanol solution containing 1% excipient Pluronic F108, and 2% of either dipyridamole or sirolimus. After drying and folding the balloons were sterilised.

[2] = Drug release profile of spray-coated balloons, PBS then methanol elution, UV (Example 4); format: physicochemical
Procedure: The technique of spray coating was introduced using a 5% solution of high molecular weight polymer PEG-PPO-PEG (Mn=14,600) in methanol. This spray coating method was used to add multiple layers of coating and ensured the correct area of the balloon was coated in a more precise fashion.
In this example, a set of experiments was conducted to assess the drug release profiles of Sirolimus and Dipyridamole. The samples were spray coated with their coating solutions with nitrogen gas at 1 bar, and 20 rotations were done (10 clockwise and 10 anticlockwise). The separation from the balloon and spray nozzle was approximately 15 cm.
The drug release profiles of both Dipyridamole and Sirolimus were determined using an excipient polymer PEG-PPO-PEG (Mn=14,600) with organic carrier solvent methanol. The coating solution quantities can be found in Table 3.
The resulting coated balloons were eluted in 8 mL of PBS for 3 minutes, before being eluted into 8 mL of methanol for 5 minutes, for full release of the coating.

loaded drug released during deployment to the hydrogel target site ([1]; spray coated, 1% Pluronic F108 and 2% drug, sterilised): 71.1% | Post-PBS reading @415 nm ([2]; 8 mL PBS 3 minutes, spray coated, PEG-PPO-PEG Mn 14,600): 0.042 | Post-Methanol reading @415 nm ([2]; 8 mL methanol 5 minutes after PBS elution): 0.087 | drug released during elution time ([2]; printed '5-minute elution time', from UV reading and calibration coefficient, PEG-PPO-PEG polymer): 32.6%
SMILES: OCCN(CCO)c1nc(N2CCCCC2)c2nc(N(CCO)CCO)nc(N3CCCCC3)c2n1 [dipyridamole]
drug lost when tracking to the site ([1]; dip coated, 20% Pluronic F108 and 8% drug): considerably less dipyridamole than sirolimus was lost
